This passage reports Critical pressure and Critical temperature results from the NIST ThermoML archive (doi:10.1021/je060078g).

Numbers after ± are expanded uncertainties.

For this data set the following is noted: Liquid; pulse-heating method.

On to `O=C(O)CCCCCCc1ccccc1` [7-phenylheptanoic acid], for which the Critical pressure was determined as 2470 ± 90 kPa and the Critical temperature amounted to 798 ± 8 K.
In the case of `O=C(O)CCc1ccccc1` [3-phenylpropanoic acid], the Critical pressure was found to be 3460 ± 120 kPa and the Critical temperature stood at 776 ± 8 K.
`O=C(O)Cc1ccccc1` [phenylacetic acid]: the Critical pressure was 3950 ± 140 kPa and the Critical temperature turned out to be 766 ± 8 K.
In the same order, the values of `O=C(O)CCCCc1ccccc1` [5-phenylvaleric acid] are 2950 ± 100 kPa and 790 ± 8 K.
In the same order, the values of `O=C(O)CCCc1ccccc1` [4-phenylbutanoic acid] are 3210 ± 110 kPa and 783 ± 8 K.
`O=C(O)CCCCCc1ccccc1` [6-phenylhexanoic acid]: the Critical pressure is listed as 2600 ± 90 kPa and the Critical temperature is listed as 794 ± 8 K.
